Converted amounts (≈) assume the structure as drawn.
Key:
[1] = Cytotoxicity against human 9KB cells; type: functional; details: read-out: ED50 (the source's name)
[2] = system: P388; assay: Cytotoxicity against mouse P388 cells; type: functional; details: read-out: ED50 (the source's name)

Structure (SMILES)	EC50 [1] [µg/mL]	EC50 [2] [µg/mL]
C/C=C1/CN2CC[C@]34C(=C(C(=O)OC)[C@H]1C[C@H]23)Nc1ccccc14 [AKUAMMICINE]	2.4 (≈ 7.44 µM)	1.7 (≈ 5.27 µM)
CC[C@]12CN3CCc4c([nH]c5ccccc45)[C@@](C(=O)OC)(c4cc5c(cc4OC)N(C)[C@H]4[C@@](O)(C(=O)OC)[C@H](OC(C)=O)[C@]6(CC)C=CCN7CC[C@]54[C@@H]76)C[C@H](C3)[C@H]1O2 [LEUROSINE]	2.4 (≈ 2.97 µM)	1.7 (≈ 2.1 µM)
CC[C@]1(O)C[C@@H]2CN(CCc3c([nH]c4ccccc34)[C@@](C(=O)OC)(c3cc4c(cc3OC)N(C)[C@H]3[C@@](O)(C(=O)OC)[C@H](OC(C)=O)[C@]5(CC)C=CCN6CC[C@]43[C@@H]65)C2)C1 [VINBLASTINE]	2.4 (≈ 2.96 µM)	1.7 (≈ 2.1 µM)
